This is an account of results in publication PMC12123458, “Unraveling Small Molecule-Mediated Sirtuin 3 Activation at a Distinct Binding Site for Cardioprotective Therapies” (ACS Central Science, 2025).

One data set concerns the target T1, SIRT3 (Homo sapiens, UniProt Q9NTG7).
T1 construct: purchased Enzo Life Sciences BML-AK557-0001
T1 sequence (Q9NTG7 1-399): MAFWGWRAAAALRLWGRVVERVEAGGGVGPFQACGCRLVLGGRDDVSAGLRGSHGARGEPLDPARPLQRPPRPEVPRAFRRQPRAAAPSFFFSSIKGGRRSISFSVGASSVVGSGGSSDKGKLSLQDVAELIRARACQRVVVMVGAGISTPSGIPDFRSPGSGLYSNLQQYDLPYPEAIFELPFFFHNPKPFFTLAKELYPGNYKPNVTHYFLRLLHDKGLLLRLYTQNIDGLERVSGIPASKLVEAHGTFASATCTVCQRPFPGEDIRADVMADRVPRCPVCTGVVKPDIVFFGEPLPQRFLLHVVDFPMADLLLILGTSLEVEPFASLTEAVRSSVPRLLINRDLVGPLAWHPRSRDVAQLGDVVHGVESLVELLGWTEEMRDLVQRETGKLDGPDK
The data set can be described thus: SPR binding to immobilized SIRT3. As to conditions: 25 °C, PBST pH 7.4. As for the experimental part:
The affinity of SKLB-11A for SIRT1, SIRT2, SIRT3, SIRT5, and SIRT6 was determined using a Reichert 4SPR system (Reichert Technologies, Depew, NY, USA). Proteins at 200 μg/mL were immobilized on a dextran-coated sensor chip (13206066) until reaching ≥12,000 response units (RUs). A dual-flow channel setup was used, reserving one channel for blank controls. SKLB-11A was introduced at varying concentrations for binding and subsequent dissociation kinetic analysis. Data acquisition was at 25 °C utilizing a PBST running buffer (pH 7.4). The equilibrium dissociation constant (K d) was computed from steady-state affinity measurements using TraceDrawer software.

Data set [1] concerns the target T2, SIRT5 (Homo sapiens, UniProt Q9NXA8).
T2 sequence (Q9NXA8 37-310): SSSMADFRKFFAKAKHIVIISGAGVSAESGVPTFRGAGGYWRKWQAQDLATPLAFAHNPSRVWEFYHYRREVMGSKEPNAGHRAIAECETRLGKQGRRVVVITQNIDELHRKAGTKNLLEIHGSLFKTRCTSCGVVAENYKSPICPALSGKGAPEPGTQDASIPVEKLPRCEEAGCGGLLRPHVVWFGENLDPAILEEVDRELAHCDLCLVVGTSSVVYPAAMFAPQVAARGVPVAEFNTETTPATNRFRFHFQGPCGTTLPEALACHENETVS
The experiment in a line: Coupled enzymatic assay, succinylated CPS1-K537 substrate. As to conditions: 100 μM. Format: biochemical. An excerpt:
Additionally, we used surface plasmon resonance (SPR) to measure the binding of SKLB-11A to immobilized SIRT3. […] We next evaluated the selectivity of SKLB-11A for different SIRT family members. […] We next examined the functional specificity of SKLB-11A using coupled enzymatic assays with isoform-specific, physiologically relevant substrates: acetylated p53-K381 for SIRT1, acetylated α-tubulin-K25 for SIRT2, acetylated MnSOD-K122 for SIRT3, and succinylated CPS1-K537 for SIRT5 (Supplementary Table S3). […] Using Schrödinger molecular docking simulations, we assessed the binding interactions of SKLB-11A with SIRT isoforms.

A further data set addresses T3, SIRT2 (Rattus norvegicus, UniProt Q5RJQ4).
T3 construct: endogenous in cells; host or cells: H9c2
T3 sequence (Q5RJQ4 1-350): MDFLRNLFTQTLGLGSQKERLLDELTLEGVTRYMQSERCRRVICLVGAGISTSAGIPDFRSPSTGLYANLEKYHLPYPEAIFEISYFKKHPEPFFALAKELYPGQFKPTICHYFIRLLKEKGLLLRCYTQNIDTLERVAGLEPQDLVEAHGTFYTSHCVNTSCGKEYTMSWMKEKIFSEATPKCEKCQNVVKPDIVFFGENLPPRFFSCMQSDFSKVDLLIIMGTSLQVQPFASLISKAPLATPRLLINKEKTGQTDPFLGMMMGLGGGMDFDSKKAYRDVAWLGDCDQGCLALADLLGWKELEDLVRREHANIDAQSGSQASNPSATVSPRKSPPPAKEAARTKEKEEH
The experiment in a line: CETSA of SIRT2 in H9c2 cells. The format is cell-based.

Data set [2] deals with T4, SIRT5 (Rattus norvegicus, UniProt Q68FX9).
T4 construct: endogenous in cells; host or cells: H9c2
T4 sequence (Q68FX9 37-310): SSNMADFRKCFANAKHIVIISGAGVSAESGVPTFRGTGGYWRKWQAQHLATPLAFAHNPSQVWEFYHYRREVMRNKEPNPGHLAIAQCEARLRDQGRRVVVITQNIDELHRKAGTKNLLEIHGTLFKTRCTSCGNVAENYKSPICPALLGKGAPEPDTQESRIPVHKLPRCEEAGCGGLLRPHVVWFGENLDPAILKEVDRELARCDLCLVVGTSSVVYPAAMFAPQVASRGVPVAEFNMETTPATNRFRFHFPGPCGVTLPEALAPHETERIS
The data set can be described thus: CETSA of SIRT5 in H9c2 cells. Format: cell-based.

A further data set has as its system H9c2 cells. The experiment in a line: OGD/R injury model in vitro. Format: cell-based. Conditions: pretreatment for 24 h, 10 μM. As for the experimental part:
An in vitro oxygen-glucose deprivation (OGD) injury model was established as described in a previous study. OGD injury was induced by incubating cells in glucose-free DMEM under hypoxic conditions (94% N2, 1% O2, and 5% CO2) for 6 h. Before the hypoxic phase, cells were treated with SKLB-11A (10 μM). The cells were then incubated in normoxic conditions with normal medium at 37 °C for the indicated time of 24 h as reperfusion. Untreated cells were used as controls.

For data set [3], the system named is Dox-induced cardiotoxicity model. The experiment in a line: Mouse model of doxorubicin-induced cardiomyopathy. Format: in vivo. The procedure: For the establishment of the experimental model, male C57BL/6J mice aged 8 weeks, with an average weight of 23 g, were utilized. The mice were administered varying dosages of SKLB-11A (10 and 20 mg/kg/day) or a corresponding volume of sterile saline via oral gavage over a period of 7 days. […] The sample size for each group consisted of eight specimens. Echocardiographic assessments were conducted at three distinct time points: baseline (day 0), post-treatment (day 7), and at the conclusion of the study (day 21). The experimental timeline was terminated on day 21.
Noninvasive transthoracic echocardiography was performed using a Vevo 3100 System with a 30-MHz transducer to assess cardiac function in mice. The procedure was conducted by an experienced technician who was blinded to the study groups. Mice were anesthetized with 1.5–2% isoflurane and underwent skin preparation. Two-dimensional guided M-mode echocardiography in the short axis view was used to measure left ventricular fractional shortening (FS) and left ventricular ejection fraction (EF).
H&E staining was used to evaluate pathological changes in key organs. Fixed tissues were dehydrated, embedded in paraffin, and sectioned into 4 μm slices. The sections were stained with hematoxylin for 10–15 min, washed with tap water for 2 min, differentiated for 30 s using hydrochloric acid and ethanol, and then washed with warm water for 5 min. After staining with eosin for 2 min, the sections were dehydrated and mounted with resin. All procedures followed the standard operating procedure (SOP) for pathological examination.

As for `COC(=O)c1c(N)n(Cc2ccc(F)cc2)c2nc3ccccc3nc12` [SKLB-11A, Methyl 2-amino-1-(4-fluorobenzyl)-1H-pyrrolo[2,3-b]quinoxaline-3-carboxylate], on SIRT3, the Kd (as a rule, a measure of binding affinity in units of concentration) came out at 4.7 µM. Besides, the “effect on basal SIRT5 desuccinylation activity” value on SIRT5 [1] was “no statistically significant effects”. Further, the “thermal stability of SIRT2 (CETSA)” value on SIRT2 is listed as “little effect on the thermal stability”. Besides, the “thermal stability of SIRT5 (CETSA)” value on SIRT5 [2] is “little effect on the thermal stability”. In addition, the OGD/R-induced mitochondrial dysfunction entry in the data set with H9c2 cells is recorded as “significantly ameliorated”. In data set [3] (10 or 20 mg/kg, ig, pretreatment, Dox mice, dose-dependent), the “left ventricular ejection fraction (EF) and fractional shortening (FS)” value is on record as “significantly restored”. In data set [3] (Dox mice), the “body weight (Dox-induced weight loss)” value was “partially reversed Dox-induced weight loss”; the “mitochondrial respiration (basal and maximal) in heart tissues” value was “restored mitochondrial respiration”; the “serum markers of myocardial injury LDH, CK-MB, BNP” value is recorded as “reduced serum markers of myocardial injury”. Besides, in data set [3] (Dox mice, H&E), the “myocardial structure, histology” value was “preserved myocardial structure”. In addition, the “toxicity at effective doses, organ histology (heart, liver, spleen, lungs, kidneys)” value in data set [3] (mice, H&E) was “no apparent toxicity”.
